{"source": "ChEMBL document CHEMBL3351941", "about": "“Synthesis and antiprotozoal activity of oligomethylene- and p-phenylene-bis(methylene)-linked bis(+)-huprines” (Bioorg Med Chem Lett, 2014)", "key": {"[1]": {"tested_on": "Trypanosoma brucei", "assay": "Trypanocidal activity against bloodstream forms of Trypanosoma brucei 221 assessed as growth inhibition after 48 hrs by resazurin assay", "type": "functional, organism-based", "details": "Trypanosoma brucei, 221, 48 h"}, "[2]": {"tested_on": "L6", "assay": "Cytotoxicity against rat L6 cells after 6 days by resazurin assay", "type": "cell-based", "details": "L6, 144 h"}, "[3]": {"assay": "Selectivity index, ratio of IC50 for rat L6 cells to IC50 for bloodstream forms of Trypanosoma brucei 221", "type": "toxicity, cell-based", "details": "L6 cells versus bloodstream forms of Trypanosoma brucei 221, read-out: Ratio IC50"}, "[4]": {"biological_target": "Acetylcholinesterase (Homo sapiens, UniProt P22303)", "sequence (P22303 whole entry)": "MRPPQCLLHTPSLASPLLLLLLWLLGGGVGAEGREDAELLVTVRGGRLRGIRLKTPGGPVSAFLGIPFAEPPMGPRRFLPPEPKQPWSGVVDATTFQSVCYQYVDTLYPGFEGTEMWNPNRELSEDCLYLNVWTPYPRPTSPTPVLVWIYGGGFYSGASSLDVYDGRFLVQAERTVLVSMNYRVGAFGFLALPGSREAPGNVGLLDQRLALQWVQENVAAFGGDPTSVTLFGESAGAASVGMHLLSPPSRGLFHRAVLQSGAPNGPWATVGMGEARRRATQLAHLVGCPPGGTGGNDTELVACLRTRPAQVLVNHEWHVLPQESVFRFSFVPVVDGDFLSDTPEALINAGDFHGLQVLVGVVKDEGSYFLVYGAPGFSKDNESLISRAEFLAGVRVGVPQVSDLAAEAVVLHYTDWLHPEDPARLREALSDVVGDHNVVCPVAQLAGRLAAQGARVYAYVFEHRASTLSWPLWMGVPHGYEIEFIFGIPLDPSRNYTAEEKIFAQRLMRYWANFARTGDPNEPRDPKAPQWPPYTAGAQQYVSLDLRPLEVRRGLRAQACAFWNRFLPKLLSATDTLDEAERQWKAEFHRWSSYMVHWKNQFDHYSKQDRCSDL", "assay": "Inhibition of human recombinant AChE using acetylthiocholine iodide as substrate preincubated for 20 mins by Ellman method"}, "[5]": {"assay": "Effective permeability of the compound by PAMPA assay", "type": "ADME", "details": "read-out: Peff"}, "[6]": {"tested_on": "Plasmodium falciparum", "assay": "Antiplamodial activity against chloroquine-resistant bloodstream forms of Plasmodium falciparum K1 infected in human A+ erythrocytes assessed as growth inhibition after 48 hrs by spectrophotometry", "type": "functional, organism-based", "details": "K1, 48 h"}}, "data": [{"compound": "CC1=C[C@H]2Cc3nc4cc(Cl)ccc4c(NCCCCCCNc4c5c(nc6cc(Cl)ccc46)C[C@@H]4C=C(C)C[C@H]5C4)c3[C@@H](C1)C2", "values": [{"measurement": "IC50", "setting": "[1]", "result": 890, "unit": "nM"}, {"measurement": "IC90", "setting": "[1]", "result": 1090, "unit": "nM"}, {"measurement": "IC50", "setting": "[2]", "result": 1610, "unit": "nM"}, {"measurement": "selectivity ratio", "setting": "[3]", "result": 1.8}, {"measurement": "IC50", "setting": "[4]", "result": 192, "unit": "nM"}, {"measurement": "Papp", "setting": "[5]", "result": 11.1, "unit": "×10⁻⁶ cm/s"}, {"measurement": "IC50", "setting": "[6]", "result": "> 6000", "unit": "nM"}]}, {"compound": "CC1=C[C@H]2Cc3nc4cc(Cl)ccc4c(NCCCCCCCCNc4c5c(nc6cc(Cl)ccc46)C[C@@H]4C=C(C)C[C@H]5C4)c3[C@@H](C1)C2", "values": [{"measurement": "IC50", "setting": "[1]", "result": 520, "unit": "nM"}, {"measurement": "IC90", "setting": "[1]", "result": 740, "unit": "nM"}, {"measurement": "IC50", "setting": "[2]", "result": 4920, "unit": "nM"}, {"measurement": "selectivity ratio", "setting": "[3]", "result": 9.5}, {"measurement": "IC50", "setting": "[4]", "result": 72.5, "unit": "nM"}, {"measurement": "Papp", "setting": "[5]", "result": 13.9, "unit": "×10⁻⁶ cm/s"}, {"measurement": "IC50", "setting": "[6]", "result": "> 6000", "unit": "nM"}]}, {"compound": "CC1=C[C@H]2Cc3nc4cc(Cl)ccc4c(NCCCCCCCCCCNc4c5c(nc6cc(Cl)ccc46)C[C@@H]4C=C(C)C[C@H]5C4)c3[C@@H](C1)C2", "values": [{"measurement": "IC50", "setting": "[1]", "result": 500, "unit": "nM"}, {"measurement": "IC90", "setting": "[1]", "result": 730, "unit": "nM"}, {"measurement": "IC50", "setting": "[2]", "result": 7710, "unit": "nM"}, {"measurement": "selectivity ratio", "setting": "[3]", "result": 15.4}, {"measurement": "IC50", "setting": "[4]", "result": 17.5, "unit": "nM"}, {"measurement": "Papp", "setting": "[5]", "result": 8.7, "unit": "×10⁻⁶ cm/s"}, {"measurement": "IC50", "setting": "[6]", "result": "> 6000", "unit": "nM"}]}, {"compound": "CC1=C[C@H]2Cc3nc4cc(Cl)ccc4c(NCCCCCCCCCCCCNc4c5c(nc6cc(Cl)ccc46)C[C@@H]4C=C(C)C[C@H]5C4)c3[C@@H](C1)C2", "values": [{"measurement": "IC50", "setting": "[1]", "result": 760, "unit": "nM"}, {"measurement": "IC90", "setting": "[1]", "result": 990, "unit": "nM"}, {"measurement": "IC50", "setting": "[2]", "result": 28500, "unit": "nM"}, {"measurement": "selectivity ratio", "setting": "[3]", "result": 37.5}, {"measurement": "IC50", "setting": "[4]", "result": 431, "unit": "nM"}, {"measurement": "Papp", "setting": "[5]", "result": 17.4, "unit": "×10⁻⁶ cm/s"}, {"measurement": "IC50", "setting": "[6]", "result": "> 6000", "unit": "nM"}]}, {"compound": "CC1=C[C@H]2Cc3nc4cc(Cl)ccc4c(NCc4ccc(CNc5c6c(nc7cc(Cl)ccc57)C[C@@H]5C=C(C)C[C@H]6C5)cc4)c3[C@@H](C1)C2", "values": [{"measurement": "IC50", "setting": "[1]", "result": 570, "unit": "nM"}, {"measurement": "IC90", "setting": "[1]", "result": 750, "unit": "nM"}, {"measurement": "IC50", "setting": "[2]", "result": 16100, "unit": "nM"}, {"measurement": "selectivity ratio", "setting": "[3]", "result": 28.2}, {"measurement": "Papp", "setting": "[5]", "result": 8.3, "unit": "×10⁻⁶ cm/s"}, {"measurement": "IC50", "setting": "[6]", "result": "> 6000", "unit": "nM"}]}, {"compound": "C[C@@H]1CC[C@H]2[C@@H](C)C(=O)O[C@@H]3O[C@@]4(C)CC[C@@H]1[C@]32OO4", "note": "[ARTEMISININ]", "values": [{"measurement": "IC50", "setting": "[6]", "result": 91, "unit": "nM"}]}, {"compound": "CC1=CC2Cc3nc4cc(Cl)ccc4c(N)c3C(C1)C2", "note": "(stereo unspecified) [HUPRINE Y]", "values": [{"measurement": "IC50", "setting": "[6]", "result": "> 10000", "unit": "nM"}]}]}
